Reference: patent US7585895B2, “Therapeutic substituted cyclopentanes” (Allergan, Inc., priority 2005, dated 2009)

Tests used:
[1] = molecular target: T1, hIP (Homo sapiens, UniProt P43119); test: FLIPR calcium signal, IP; type: cell-based; settings: HEK-293(EBNA)
T1 construct: expressed in transfected cells
Description: (§1) HEK-293(EBNA) cells, stably expressing one type or subtype of recombinant human prostaglandin receptors (prostaglandin receptors expressed: hDP/Gqs5; hEP1; hEP2/Gqs5; hEP3A/Gqi5; hEP4/Gqs5; hFP; hIP; hTP), were cultured in 100 mm culture dishes in high-glucose DMEM medium containing 10% fetal bovine serum, 2 mM 1-glutamine, 250 μg/ml geneticin (G418) and 200 μg/ml hygromycin B as selection markers, and 100 units/ml penicillin G, 100 μg/ml streptomycin and 0.25 μg/ml amphotericin B.
(§2) Cells were seeded at a density of 5×10^4 cells per well in Biocoat® Poly-D-lysine-coated black-wall, clear-bottom 96-well plates (Becton-Dickinson) and allowed to attach overnight in an incubator at 37° C. Cells were then washed two times with HBSS-HEPES buffer (Hanks Balanced Salt Solution without bicarbonate and phenol red, 20 mM HEPES, pH 7.4) using a Denley Cellwash plate washer (Labsystems). After 45 minutes of dye-loading in the dark, using the calcium-sensitive dye Fluo-4 AM at a final concentration of 2 μM, plates were washed four times with HBSS-HEPES buffer to remove excess dye leaving 100 μl in each well. Plates were re-equilibrated to 37° C. for a few minutes.
(§3) Cells were excited with an Argon laser at 488 nm, and emission was measured through a 510-570 nm bandwidth emission filter (FLIPR™, Molecular Devices, Sunnyvale, Calif.). Drug solution was added in a 50 μl volume to each well to give the desired final concentration. The peak increase in fluorescence intensity was recorded for each well. On each plate, four wells each served as negative (HBSS-HEPES buffer) and positive controls (standard agonists: BW245C (hDP); PGE2 (HEP1; hEP2/Gqs5; hEP3A/Gqi5; hEP4/Gqs5); PGF2α (hFP); carbacyclin (hIP); U-46619 (hTP), depending on receptor). The peak fluorescence change in each drug-containing well was then expressed relative to the controls.
(§4) Compounds were tested in a high-throughput (HTS) or concentration-response (CoRe) format. In the HTS format, forty-four compounds per plate were examined in duplicates at a concentration of 10^−5 M. To generate concentration-response curves, four compounds per plate were tested in duplicates in a concentration range between 10^−5 and 10^−11 M. The duplicate values were averaged. In either, HTS or CoRe format each compound was tested on at least 3 separate plates using cells from different passages to give an n≧3.

[2] = molecular target: T2, hEP4/Gqs5 (Homo sapiens, UniProt P35408); test: FLIPR calcium signal, EP4; type: cell-based; settings: HEK-293(EBNA); for EC50: read-out: Ca2+ Signal-EC50 (nM) EP4
T2 construct: expressed in transfected cells
T2 sequence (P35408 whole entry): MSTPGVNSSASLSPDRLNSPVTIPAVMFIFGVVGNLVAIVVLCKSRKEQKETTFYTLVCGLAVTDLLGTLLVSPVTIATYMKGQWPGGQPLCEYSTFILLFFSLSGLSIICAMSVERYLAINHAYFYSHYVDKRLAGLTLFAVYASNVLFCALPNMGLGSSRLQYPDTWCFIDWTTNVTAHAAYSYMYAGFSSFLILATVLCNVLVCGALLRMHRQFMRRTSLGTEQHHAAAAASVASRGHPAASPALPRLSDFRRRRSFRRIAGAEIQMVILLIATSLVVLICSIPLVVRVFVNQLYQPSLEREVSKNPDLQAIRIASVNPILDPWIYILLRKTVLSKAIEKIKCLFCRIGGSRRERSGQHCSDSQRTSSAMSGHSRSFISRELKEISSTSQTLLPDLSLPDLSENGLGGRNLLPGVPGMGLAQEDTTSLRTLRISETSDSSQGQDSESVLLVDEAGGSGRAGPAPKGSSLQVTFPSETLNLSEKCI
Description: as §1, §2, §3, §4

[3] = molecular target: T3, hEP2/Gqs5 (Homo sapiens, UniProt P43116); test: FLIPR calcium signal, EP2; type: cell-based; settings: HEK-293(EBNA), value outside parentheses, read-out: Ca2+ Signal-EC50 (nM) EP2
T3 construct: expressed in transfected cells
T3 sequence (P43116 whole entry): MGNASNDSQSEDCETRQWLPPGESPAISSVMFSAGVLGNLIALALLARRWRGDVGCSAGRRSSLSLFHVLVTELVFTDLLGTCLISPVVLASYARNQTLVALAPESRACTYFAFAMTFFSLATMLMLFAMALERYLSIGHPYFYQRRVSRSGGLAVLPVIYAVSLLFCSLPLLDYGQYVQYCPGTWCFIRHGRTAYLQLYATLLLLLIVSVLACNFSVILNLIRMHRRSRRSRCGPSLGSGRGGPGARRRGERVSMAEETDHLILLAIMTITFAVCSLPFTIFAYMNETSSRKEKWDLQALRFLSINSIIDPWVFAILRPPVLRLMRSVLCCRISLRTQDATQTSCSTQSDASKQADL
Description: as §1, §2, §3, §4

[4] = molecular target: EP2 (Homo sapiens, UniProt P43116); test: Competition binding, [3H]PGE2, EP2 (Ki); parameters: expressed in transfected cells; membranes or whole cells; settings: HEK 293 cells stably expressing human EP2, [3H]PGE2
EP2, sequence (P43116 whole entry): as above
Description: Competition binding experiments were performed in a medium containing Hank's balanced salt solution, Hepes 20 mM, pH 7.3, membranes (˜60 μg protein) or 2×10^5 cells from HEK 293 cells stably expressing human EP2 receptors, [^3H]PGE2 (10 nM) and various concentrations of test compounds in a total volume of 300 μl. Reaction mixtures were incubated at 23° C. for 60 min, and were filtered over Whatman GF/B filters under vacuum. Filters were washed three times with 5 ml ice-cold buffer containing 50 mM Tris/HCl (pH 7.3). Non-specific binding was estimated in the presence of excess unlabeled PGE2 (10 μM). Binding data fitted to the binding model for a single class of binding sites, using nonlinear regression analysis. IC50 values thus obtained were converted to Ki using the equation of Ki=(IC50/(1+[L]/KD) where [L] represents PGE2 concentration (10 nM) and KD the dissociation constant for [^3H]PGE2 at human EP2 receptors (40 nM).
(§5) HEK-293 cells stably expressing the human or feline FP receptor, or EP1, EP2, or EP4 receptors were washed with TME buffer, scraped from the bottom of the flasks, and homogenized for 30 sec using a Brinkman PT 10/35 polytron. TME buffer was added to achieve a final 40 ml volume in the centrifuge tubes (the composition of TME is 100 mM TRIS base, 20 mM MgCl2, […]; 10N HCl is added to achieve a pH of 7.4).
(§6) The cell homogenate was centrifuged at 19000 r.p.m. for 20 min at 4° C using a Beckman Ti-60 rotor. The resultant pellet was resuspended in TME buffer to give a final 1 mg/ml protein concentration, as determined by Biorad assay. Radioligand binding competition assays vs. [^3H-]17-phenyl PGF2α. (5 nM) were performed in a 100 μl volume for 60 min. Binding reactions were started by adding plasma membrane fraction. The reaction was terminated by the addition of 4 ml ice-cold TRIS-HCl buffer and rapid filtration through glass fiber GF/B filters using a Brandel cell harvester. The filters were washed 3 times with ice-cold buffer and oven dried for one hour.
(§7) [^3H-] PGE2 (specific activity 180 Ci mmol) was used as the radioligand for EP receptors. [^3H] 17-phenyl PGF2α, was employed for FP receptor binding studies. Binding studies employing EP1, EP2, EP4 and FP receptors were performed in duplicate in at least three separate experiments. A 200 μl assay volume was used. Incubations were for 60 min at 25° C. and were terminated by the addition of 4 ml of ice-cold 50 mM TRIS-HCl, followed by rapid filtration through Whatman GF/B filters and three additional 4 ml washes in a cell harvester (Brandel). Competition studies were performed using a final concentration of 5 nM [^3H]-PGE2, or 5 nM [^3H] 17-phenyl PGF2αand non-specific binding determined with 10^−5M of unlabeled PGE2, or 17-phenyl PGF2α, according to receptor subtype studied.

[5] = molecular target: T4, EP4 receptors (Homo sapiens, UniProt P35408); test: Radioligand binding, [3H]PGE2, EP4 (Ki); settings: HEK-293 cells stably expressing EP4, [3H]PGE2
T4 construct: expressed in transfected cells; membrane pellet
T4 sequence (P35408 whole entry): as the sequence (P35408 whole entry) above
Description: as §5, §6, §7

[6] = molecular target: T5, hFP (Homo sapiens, UniProt P43088); test: FLIPR calcium signal, FP; type: cell-based; settings: HEK-293(EBNA)
T5 construct: expressed in transfected cells
T5 sequence (P43088 whole entry): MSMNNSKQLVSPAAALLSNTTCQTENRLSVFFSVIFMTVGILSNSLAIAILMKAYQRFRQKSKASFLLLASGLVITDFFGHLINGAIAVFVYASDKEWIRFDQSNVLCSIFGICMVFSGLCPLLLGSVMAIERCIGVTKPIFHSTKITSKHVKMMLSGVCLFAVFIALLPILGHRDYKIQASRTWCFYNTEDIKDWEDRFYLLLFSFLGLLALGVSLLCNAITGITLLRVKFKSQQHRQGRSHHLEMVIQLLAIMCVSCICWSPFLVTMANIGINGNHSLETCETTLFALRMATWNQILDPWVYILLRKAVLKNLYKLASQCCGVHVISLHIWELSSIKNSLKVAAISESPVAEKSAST
Description: as §1, §2, §3, §4

T1 sequence (P43119 whole entry): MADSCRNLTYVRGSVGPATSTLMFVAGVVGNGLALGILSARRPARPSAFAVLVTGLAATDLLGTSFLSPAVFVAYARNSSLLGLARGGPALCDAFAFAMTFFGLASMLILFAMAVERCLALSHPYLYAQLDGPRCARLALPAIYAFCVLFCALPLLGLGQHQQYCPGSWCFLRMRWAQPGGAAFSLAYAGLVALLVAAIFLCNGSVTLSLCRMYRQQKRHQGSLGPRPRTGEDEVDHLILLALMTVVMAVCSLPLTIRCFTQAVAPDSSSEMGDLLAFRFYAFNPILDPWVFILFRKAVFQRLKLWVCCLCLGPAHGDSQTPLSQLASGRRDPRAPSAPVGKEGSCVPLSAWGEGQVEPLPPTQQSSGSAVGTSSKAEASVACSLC

Ca2+ Signal-EC50 (nM) IP [1] | Ca2+ Signal-EC50 (nM) EP4 [2] | EC50 [3] [nM] | Ki [4] [nM] | Ki [5] [nM] | Ca2+ Signal-EC50 (nM) FP [6] | EC50 [2] [nM] | EC50 ([1]; read-out: Ca2+ Signal-EC50 (nM) IP) [nM] | SMILES
not active |  | 51 | 148 | > 10000 | not active | 15800 |  | O=C(O)CCCCCC[C@@H]1[C@@H](c2ccc(C(O)Cc3ccccc3)cc2)[C@H](O)C[C@H]1Cl (stereo partly drawn) [Entry 22, 7-{(1 R,2S,3R,5R)-5-Chloro-3-hydroxy-2-[4-(1-hydroxy-2-phenyl-ethyl)-phenyl]-cyclopentyl}-heptanoic acid]
not active |  | 548 | 1130 | > 10000 | not active | > 10000 |  | O=C(O)CCC/C=C\C[C@@H]1[C@@H](c2ccc(C(O)CCc3ccccc3)cc2)[C@H](O)C[C@H]1Cl (stereo partly drawn) [Entry 23, (Z)-7-{(1R,2S,3R,5R)-5-Chloro-3-hydroxy-2-[4-(1-hydroxy-3-phenyl-propyl)-phenyl]-cyclopentyl}-hept-5-enoic acid]
not active |  | 735 | 2160 | > 10000 | not active | > 10000 |  | O=C(O)CCCCCC[C@@H]1[C@@H](c2ccc(C(O)CCc3ccccc3)cc2)[C@H](O)C[C@H]1Cl (stereo partly drawn) [Entry 24, 7-{(1R,2S,3R,5R)-5-Chloro-3-hydroxy-2-[4-(1-hydroxy-3-phenyl-propyl)-phenyl]-cyclopentyl}-heptanoic acid]
not active | not active | 58 | 278 | 2260 | not active |  |  | CCCCCCC(O)c1ccc([C@@H]2[C@@H](C/C=C\CCCC(=O)O)[C@H](Cl)C[C@H]2O)cc1 (stereo partly drawn) [Entry 25, (Z)-7-{(1R,2S,3R,5R)-5-Chloro-3-hydroxy-2-[4-(1-hydroxy-heptyl)-phenyl]-cyclopentyl}-hept-5-enoic acid]
not active | not active | 154 | 1660 | > 10000 | not active |  |  | CCCC(O)c1ccc([C@@H]2[C@@H](C/C=C\CCCC(=O)O)[C@H](Cl)C[C@H]2O)cc1 (stereo partly drawn) [Entry 26, (Z)-7-{(1R,2S,3R,5R)-5-Chloro-3-hydroxy-2-[4-(1-hydroxy-butyl)-phenyl]-cyclopentyl}-hept-5-enoic acid]

Second part, the molecule before the results:

SMILES | Ca2+ Signal-EC50 (nM) IP [1] | Ca2+ Signal-EC50 (nM) EP4 [2] | EC50 [3] [nM] | Ki [4] [nM] | Ki [5] [nM] | Ca2+ Signal-EC50 (nM) FP [6] | EC50 [2] [nM] | EC50 ([1]; read-out: Ca2+ Signal-EC50 (nM) IP) [nM]
CCCCCC(O)c1ccc([C@@H]2[C@@H](CCCc3ccc(C(=O)O)s3)[C@H](Cl)C[C@H]2O)cc1 (stereo partly drawn) [Entry 2, 5-(3-{(1R,2S,3R,5R)-5-Chloro-3-hydroxy-2-[4-(1-hydroxy-hexyl)-phenyl]-cyclopentyl}-propyl)-thiophene-2-carboxylic acid] | not active | not active | 4 | 24 | 3020 | not active |  | 
CCCC1(C(O)c2cccc([C@@H]3[C@@H](Cc4cccc(CCC(=O)O)c4)[C@H](Cl)C[C@H]3O)c2)CCC1 (stereo partly drawn) [Entry 4, 3-[3-((1R,2S,3R,5R)-5-Chloro-3-hydroxy-2-{3-[hydroxy-(1-propyl-cyclobutyl)-methyl]-phenyl}-cyclopentylmethyl)-phenyl]-propionic acid] | not active |  | 4110 | > 10000 | > 10000 | not active | > 10000 | 
CCCCCC(O)c1ccc([C@@H]2[C@@H](C/C=C\CCCC(=O)O)[C@@H](Cl)C[C@H]2O)cc1 (stereo partly drawn) [Entry 9, (Z)-7-{(1R,2S,3R,5S)-5-Chloro-3-hydroxy-2-[4-(1-hydroxy-hexyl)-phenyl]-cyclopentyl}-hept-5-enoic acid] |  |  | 242 | 3950 | 4590 | not active | 947 | 6880
CCCCCC(O)c1ccc([C@@H]2[C@@H](CCCCCCC(=O)O)[C@H](Cl)C[C@H]2O)cc1 (stereo partly drawn) [Entry 14, 7-{(1R,2S,3R,5R)-5-Chloro-3-hydroxy-2-[4-(1-hydroxy-hexyl)-phenyl]-cyclopentyl}-heptanoic acid] | not active |  | 28 | 287 | 8610 | not active | > 10000 | 
O=C(O)CCC/C=C\C[C@@H]1[C@@H](c2ccc(C(O)CCC3CCCCC3)cc2)[C@H](O)C[C@H]1Cl (stereo partly drawn) [Entry 15, (Z)-7-{(1R,2S,3R,5R)-5-Chloro-2-[4-(3-cyclohexyl-1-hydroxy-propyl)-phenyl]-3-hydroxy-cyclopentyl}-hept-5-enoic acid] | not active | not active | 495 | 260 | 3810 | not active |  | 
O=C(O)CCCCCC[C@@H]1[C@@H](c2ccc(C(O)CCC3CCCCC3)cc2)[C@H](O)C[C@H]1Cl (stereo partly drawn) [Entry 16, 7-{(1R,2S,3R,5R)-5-Chloro-2-[4-(3-cyclohexyl-1-hydroxy-propyl)-phenyl]-3-hydroxy-cyclopentyl}-heptanoic acid] | not active | not active | 2330 | 1290 | 5580 | not active |  | 
O=C(O)CCCCCC[C@@H]1[C@@H](c2ccc(C(O)CC3CCCCC3)cc2)[C@H](O)C[C@H]1Cl (stereo partly drawn) [Entry 18, 7-{(1R,2S,3R,5R)-5-Chloro-2-[4-(2-cyclohexyl-1-hydroxy-ethyl)-phenyl]-3-hydroxy-cyclopentyl}-heptanoic acid] | not active |  | 2250 | 2290 | 4940 | not active | > 10000 | 
